Reference: paper PMC2362650, “Phase I and pharmacokinetic study of the topoisomerase II catalytic inhibitor fostriecin” (British Journal of Cancer, 1999)

Tests used:
[1] = system: GLC4/VM20x; design: method as in Withoff et al, 1996; settings: ref Withoff et al, 1996; cited from earlier work
[2] = Plasma and urine pharmacokinetics (HPLC-UV) in patients after 60-min IV infusion; type: in vivo, human; settings: patients who received 12.2 mg m-2 (and above) fostriecin
Description: Fostriecin (CI-920) is a topoisomerase (topo) II catalytic activity inhibitor (Boritzki et al, 1988) (Figure 1). This novel class of topo II-targeting drugs is considered of potential value for treatment of patients with tumours resistant to classic topo II poisons, including anthracyclines and podophyllotoxins (Cummings and Smyth, 1993). The nuclear enzyme topo II is essential for the regulation of DNA conformation (reviewed in Osheroff et al, 1991). Central in its action is the formation of a complex with DNA. Stabilization of this complex by topo II poisons induces DNA damage and cell death (Froelich-Ammon and Osheroff, 1995). Decreased complex formation due to decreased topo II levels is considered to be an important mechanism of tumour-resistance to topo II poisons (Beck and Danks, 1991). The topo II catalytic inhibitor fostriecin is expected to have increased activity against tumour cells with low topo II levels and this was confirmed in in vitro studies (De Jong et al, 1991). […] Because of increased toxi- city of fostriecin in dogs compared to mice, a dose below one-third of the one-tenth mouse equivalent LD10, 2 mg m-2 day-1, was chosen as starting dose in humans (Clinical Brochure Fostriecin, 1991). […] We also performed an analysis of the human pharmacokinetics of fostriecin and ex vivo experiments to investigate if the plasma drug concentrations achieved were sufficient to inhibit a tenipo- side-resistant tumour cell line. The maximum tolerated dose (MTD) of fostriecin could not be established because drug supply was stopped prematurely. However, results of this study may provide a basis for continued clinical development of this agent. PATIENTS AND METHODS Patient selection, drug administration and evaluation Patient eligibility criteria were: histologically confirmed diagnosis of a solid tumour, no longer amenable to established forms of treatment; age 18-75 years; Eastern Cooperative Oncology Group (ECOG) performance status 2; life expectancy 12 weeks; no Phase I and pharmacokinetic study of the topoisomerase II catalytic inhibitor fostriecin RS de Jong1, NH Mulder1, DRA Uges2, DTh Sleijfer1, FJP Hoppener4, HJM Groen3, PHB Willemse1, WTA van der Graaf1 and EGE de Vries1 Departments of 1Medical Oncology, 2Pharmacy and Toxicology, and 3Pulmonary Diseases, University Hospital Groningen, The Netherlands; 4EORTC New Drug Development Office, Amsterdam, The Netherlands Summary We conducted a phase I and pharmacokinetic study of the topoisomerase II catalytic inhibitor fostriecin. Fostriecin was administered intravenously over 60 min on days 1-5 at 4-week intervals. Dose was escalated from 2 mg m-2 day-1 to 20 mg m-2 day-1 in 20 patients. Drug pharmacokinetics was analysed with high performance liquid chromatography with UV-detection. Plasma collected during drug administration was tested in vitro for growth inhibition of a teniposide-resistant small-cell lung cancer (SCLC) cell line. The predominant toxicities were elevated liver transaminases (maximum common toxicity criteria (CTC) grade 4) and serum creatinine (maximum CTC grade 2). […] Duration of elevated alanine-amino transferase (ALT) was dose-limiting in one patient at 20 mg m-2. Other frequent toxicities were grade 1-2 nausea/vomiting, fever and mild fatigue. […] A metabolite, most probably dephosphorylated fostriecin, was detected in plasma and urine. […] However, further escalation seems possible and is warranted to achieve potentially effective drug levels. Fostriecin has a short plasma half-life and longer duration of infusion should be considered. […]

Structure (SMILES) | acquired resistance of GLC4/VM20x compared to GLC4 [1] [fold] | metabolite in plasma and urine [2]
COc1cc([C@@H]2c3cc4c(cc3[C@@H](O[C@@H]3O[C@@H]5CO[C@@H](c6cccs6)O[C@H]5[C@H](O)[C@H]3O)[C@H]3COC(=O)[C@H]23)OCO4)cc(OC)c1O [teniposide, reference compound] | 20 | –
C[C@@](O)(/C=C/[C@H]1CC=CC(=O)O1)[C@H](O)C[C@@H](O)\C=C/C=C\C=C\CO [dephosphorylated fostriecin] | – | detected
